We go through 17 compounds from ChEMBL document CHEMBL4033723, “Succinamide derivatives of melampomagnolide B and their anti-cancer activities” (2017).

Each structure is given as a SMILES string.

This assay can be described thus: Induction of apoptosis in human M9-ENL1 cells assessed as cell death after 24 hrs by Annexin V/PI or 7-AAD staining based flow cytometry. The settings on record: M9-ENL1, 24 h, read-out: LC50 (the source's name). It counts as functional. On the technique in general: A flow cytometer gives signals particle by particle.
Turning to `C=C1C(=O)O[C@H]2[C@H]1CC/C(COC(=O)CCC(=O)N1CCC(F)(F)CC1)=C\CC[C@@]1(C)O[C@@H]21`, the CC50 was 5.2 µM.

Regarding `C=C1C(=O)O[C@H]2[C@H]1CC/C(COC(=O)CCC(=O)Nc1cccc(N)n1)=C\CC[C@@]1(C)O[C@@H]21`, the CC50 is 12 µM. Regarding `C=C1C(=O)O[C@H]2[C@H]1CC/C(COC(=O)CCC(=O)NCCCN1CCOCC1)=C\CC[C@@]1(C)O[C@@H]21`, the CC50 is 14 µM.

In the case of `C=C1C(=O)O[C@H]2[C@H]1CC/C(COC(=O)CCC(=O)NCCCCCCCCCCNC(=O)CCC(=O)OC/C1=C/CC[C@@]3(C)O[C@H]3[C@H]3OC(=O)C(=C)[C@@H]3CC1)=C\CC[C@@]1(C)O[C@@H]21`, the CC50 was 12 µM. For `C=C1C(=O)O[C@H]2[C@H]1CC/C(COC(=O)CCC(=O)NCCCCCCCNC(=O)CCC(=O)OC/C1=C/CC[C@@]3(C)O[C@H]3[C@H]3OC(=O)C(=C)[C@@H]3CC1)=C\CC[C@@]1(C)O[C@@H]21`, the CC50 was determined as 15 µM. In the case of `C=C1C(=O)O[C@@H]2C3O[C@]3(C)CC/C=C(\C)CC[C@@H]12` (some centres not stated) it was 7.5 µM; in that of `C=C1C(=O)O[C@H]2[C@H]1CC/C(COC(=O)CCC(=O)NCCCCCCNC(=O)CCC(=O)OC/C1=C/CC[C@@]3(C)O[C@H]3[C@H]3OC(=O)C(=C)[C@@H]3CC1)=C\CC[C@@]1(C)O[C@@H]21`, 21 µM. As to `C=C1C(=O)O[C@H]2[C@H]1CC/C(COC(=O)CCC(=O)NCCCn1ccnc1)=C\CC[C@@]1(C)O[C@@H]21`, the CC50 is more than 20 µM. For `C=C1C(=O)O[C@H]2[C@H]1CC/C(COC(=O)CCC(=O)NCCc1ccccn1)=C\CC[C@@]1(C)O[C@@H]21` the value was 13.5 µM; for `C=C1C(=O)O[C@H]2[C@H]1CC/C(COC(=O)CCC(=O)NCc1ccccn1)=C\CC[C@@]1(C)O[C@@H]21`, 14 µM; for `C=C1C(=O)O[C@H]2[C@H]1CC/C(COC(=O)CCC(=O)Nc1nc(N)n[nH]1)=C\CC[C@@]1(C)O[C@@H]21`, 60 µM. Take `C=C1C(=O)O[C@H]2[C@H]1CC/C(COC(=O)CCC(=O)N1CCN(C)CC1)=C\CC[C@@]1(C)O[C@@H]21`: the CC50 worked out at 8.1 µM. In the case of `C=C1C(=O)O[C@H]2[C@H]1CC/C(COC(=O)CCC(=O)NCCN1CCOCC1)=C\CC[C@@]1(C)O[C@@H]21` it was 20 µM.

`C=C1C(=O)O[C@H]2[C@H]1CC/C(COC(=O)CCC(=O)Nc1n[nH]c(SC)n1)=C\CC[C@@]1(C)O[C@@H]21`: the CC50 was 13 µM.

With `C=C1C(=O)O[C@H]2[C@H]1CC/C(COC(=O)CCC(=O)NCCCCCNC(=O)CCC(=O)OC/C1=C/CC[C@@]3(C)O[C@H]3[C@H]3OC(=O)C(=C)[C@@H]3CC1)=C\CC[C@@]1(C)O[C@@H]21`, the CC50 worked out at 19 µM. In the case of `C=C1C(=O)O[C@H]2[C@H]1CC/C(COC(=O)CCC(=O)NCCCCNC(=O)CCC(=O)OC/C1=C/CC[C@@]3(C)O[C@H]3[C@H]3OC(=O)C(=C)[C@@H]3CC1)=C\CC[C@@]1(C)O[C@@H]21` it was 19 µM; in that of `C=C1C(=O)O[C@H]2[C@H]1CC/C(COC(=O)CCC(=O)NCCCNC(=O)CCC(=O)OC/C1=C/CC[C@@]3(C)O[C@H]3[C@H]3OC(=O)C(=C)[C@@H]3CC1)=C\CC[C@@]1(C)O[C@@H]21`, 10 µM.
